Laboratory results as given in article PMC8592419 (PLoS ONE, 2021).
Converted amounts (≈) assume the structure as drawn. Like-named read-outs stand apart in the source and are kept apart here. Where a SMILES comes first, the peptide text is derived from it.

Experiments:
[1] = tested on: human peripheral blood mononuclear cells (PBMCs); assay: PBMC toxicity, trypan blue exclusion assay; format: cell-based; details: 1 h at 37°C, mean±SD of duplicates, two independent experiments
Description: For the toxicity of the potential AMPs to human peripheral blood mononuclear cells (PBMCs), the trypan blue exclusion assay was used. Fresh human PBMCs were prepared from blood samples of healthy volunteers using the Ficoll density gradient technique. The cells were centrifuged at 1,800 rpm for 20 min at 20°C and washed three times with PBS and adjusted with RPMI-1640 medium into 6.25×10^5 cells/ml. Fifty microliters of PBMC suspension and 50 μl of AMP solutions (6.25–400 μg/ml) were added to the 96-well microtiter plates and incubated for 1 h at 37°C. Then, 20 μl of the samples were mixed with 20 μl of 0.4% (w/v) trypan blue solution (0.81% NaCl and 0.06% (w/v) dibasic potassium phosphate) in microtubes and incubated for 3 min at room temperature. The PBMC suspensions treated with PBS were used as negative controls. PBMCs were counted using a dual-chamber hemocytometer under a light microscope. Viable and non-viable cells were counted under a microscope and the percentage of viable cells was calculated using the following formula: % of viable cells = [1.00 –([…] / Number of total cells)] × 100. All assays were performed in duplicate with two independent experiments.

[2] = tested on: human red blood cells (RBCs); assay: Hemolytic toxicity test; format: cell-based; details: for Hemolytic activities (%hemolysis): human RBCs, 1 h at 37°C, mean±SD of duplicates, two independent experiments
Description: For the hemolytic toxicity test, red blood cells (RBCs) from fresh blood samples of healthy volunteers were obtained by centrifugation at 1,000 rpm for 5 min. The cells were washed three times with sterile phosphate buffered saline (PBS) and adjusted into 1×10^8 cells/ml. AMPs were diluted with PPB in ranging from 6.25 to 400 μg/ml. Fifty microliters of the RBC suspensions and 50 μl of AMP solutions were added to 1.5 ml sterile microtubes, incubated for 1 h at 37°C and then centrifuged at 1,000 rpm for 5 min. The supernatants were transferred to new 96-well microtiter plates for measurement of the absorbance at 540 nm using a microplate reader. RBC suspensions treated with 2% (v/v) Triton X-100 and PBS solution were used as positive and negative controls. The percentages of hemolysis were calculated using the following formula: % of RBC lysis = 100 × [(Test—PBS) / (Positive control—PBS)]. All assays were performed in duplicate and two independent experiments.

Mab ATCC19977 strain = format: cell-based, Mycobacterium abscessus
Description: Briefly, serial dilutions of the AMPs were prepared with potassium phosphate buffer (PPB) from the concentration range of 3.125 to 400 μg/ml and then 50 μl of each dilution were added to each 96-well plate. Colonies of the isolate were suspended and then further diluted in Mueller-Hinton broth to obtain a final concentration of 1×10^3 CFU/ml (optimized according to the available AMP stock concentration). Fifty microliters of this inoculum were added to each well of the plates. The plates were incubated for 3 days at 37°C. Plain media and bacterial suspensions without AMPs were used as negative and positive controls. The MIC values were read and recorded. All assays were performed in duplicate and two independent experiments.

[3] = tested on: M. abscessus clinical isolate MAB13; assay: In vitro susceptibility testing (DST), CLSI broth microdilution; format: cell-based, M. abscessus subsp. massiliense; parameters: key to DST profile, interpretation, Day 3 / DST profile, interpretation, Day 5 / DST profile, interpretation, Day 14: S, susceptible; I, intermediate; R, resistant; details: for MIC: Mycobacteroides abscessus
Description: (§1) Drug susceptibility testing (DST) was performed according to the Clinical and Laboratory Standards Institute (CLSI) guidelines M24-A2 [42] using the broth microdilution method to determine the minimum inhibitory concentration (MIC). […] Colonies were grown at an adjusted cell density to a 0.5 McFarland standard and further diluted to 5×10^5 CFU/ml. […] These were then incubated at 37°C for 3, 5 and 14 days. The MIC was defined as the concentration in which no visible growth was observed. The results were interpreted according to the guidelines of CLSI. Inducible resistance was inferred by changes in MIC values from being susceptible at day 3 to resistant at day 14.

[4] = tested on: M. abscessus clinical isolate MAB14; assay: as above; format: cell-based, M. abscessus subsp. massiliense; parameters: key to DST profile, interpretation, Day 3 / DST profile, interpretation, Day 5 / DST profile, interpretation, Day 14: S, susceptible; I, intermediate; R, resistant; details: for MIC: Mycobacteroides abscessus
Description: as §1

[5] = tested on: M. abscessus clinical isolate MAB15; assay: as above; format: cell-based, M. abscessus subsp. massiliense; parameters: key to DST profile, interpretation, Day 3 / DST profile, interpretation, Day 5 / DST profile, interpretation, Day 14: S, susceptible; I, intermediate; R, resistant; details: for MIC: Mycobacteroides abscessus
Description: as §1

[6] = tested on: M. abscessus clinical isolate MAB16; assay: as above; format: cell-based, M. abscessus subsp. massiliense; parameters: key to DST profile, interpretation, Day 3 / DST profile, interpretation, Day 5 / DST profile, interpretation, Day 14: S, susceptible; I, intermediate; R, resistant; details: for MIC: Mycobacteroides abscessus
Description: as §1

[7] = tested on: M. abscessus clinical isolate MAB12; assay: as above; format: cell-based, M. abscessus subsp. massiliense; parameters: key to DST profile, interpretation, Day 3 / DST profile, interpretation, Day 5 / DST profile, interpretation, Day 14: S, susceptible; I, intermediate; R, resistant; details: for MIC: Mycobacteroides abscessus
Description: as §1

[8] = 72 h, day 3, read-out: DST profile, MIC value, Day 3
[9] = 120 h, day 5, read-out: DST profile, MIC value, Day 5
[10] = 336 h, day 14, read-out: DST profile, MIC value, Day 14

Structure (SMILES): CC[C@H](C)[C@H](NC(=O)[C@H](CCCCN)NC(=O)[C@H](CCCNC(=N)N)NC(=O)CNC(=O)[C@H](CC(C)C)NC(=O)[C@H](CO)NC(=O)[C@H](CCCNC(=N)N)NC(=O)[C@H](CC(C)C)NC(=O)CNC(=O)CN)C(=O)N[C@@H](CC(C)C)C(=O)N[C@@H](CCCNC(=N)N)C(=O)N[C@@H](C)C(=O)N[C@@H](Cc1c[nH]c2ccccc12)C(=O)N[C@@H](CCCCN)C(=O)N[C@@H](CCCCN)C(=O)N[C@@H](Cc1ccc(O)cc1)C(=O)O [S61] (H-GGLRSLGRKILRAWKKY-OH)
- Viable cells of PBMCs (% viable cells) ([1]; 6.25 µg/mL): 97.98±1.38%
- Viable cells of PBMCs (% viable cells) ([1]; 12.5 µg/mL): 94.40±0.56%
- Viable cells of PBMCs (% viable cells) ([1]; 25 µg/mL): 95.35±3.74%
- Viable cells of PBMCs (% viable cells) ([1]; 50 µg/mL): 87.35±7.57%
- Viable cells of PBMCs (% viable cells) ([1]; 100 µg/mL): 79.70±6.73%
- Viable cells of PBMCs (% viable cells) ([1]; 200 µg/mL): 38.76±0.82%
- Viable cells of PBMCs (% viable cells) ([1]; 400 µg/mL): 41.40±5.84%
- Hemolytic activities (%hemolysis) ([2]; 6.25 µg/mL): -0.18±0.75%
- Hemolytic activities (%hemolysis) ([2]; 12.5 µg/mL): 4.58±4.48%
- Hemolytic activities (%hemolysis) ([2]; 25 µg/mL): 6.34±4.98%
- Hemolytic activities (%hemolysis) ([2]; 50 µg/mL): 9.15±1.99%
- Hemolytic activities (%hemolysis) ([2]; 100 µg/mL): 10.74±0.75%
- Hemolytic activities (%hemolysis) ([2]; 200 µg/mL): 11.44±0.25%
- Hemolytic activities (%hemolysis) ([2]; 400 µg/mL): 13.03±0.00%
- MIC values (Mab ATCC19977 strain): 200 µg/mL (≈ 99.9 µM)

Structure (SMILES): CC[C@H](C)[C@H](NC(=O)[C@H](CCCCN)NC(=O)[C@H](CCCNC(=N)N)NC(=O)CNC(=O)[C@H](CC(C)C)NC(=O)[C@H](CO)NC(=O)[C@H](CCCNC(=N)N)NC(=O)[C@H](CC(C)C)NC(=O)CNC(=O)CN)C(=O)N[C@@H](CC(C)C)C(=O)N[C@@H](CCCNC(=N)N)C(=O)N[C@@H](C)C(=O)N[C@@H](Cc1c[nH]c2ccccc12)C(=O)N[C@@H](CCCCN)C(=O)O [S63] (H-GGLRSLGRKILRAWK-OH)
- Viable cells of PBMCs (% viable cells) ([1]; 6.25 µg/mL): 103.67±6.60%
- Viable cells of PBMCs (% viable cells) ([1]; 12.5 µg/mL): 101.78±5.46%
- Viable cells of PBMCs (% viable cells) ([1]; 25 µg/mL): 88.38±7.60%
- Viable cells of PBMCs (% viable cells) ([1]; 50 µg/mL): 93.65±6.02%
- Viable cells of PBMCs (% viable cells) ([1]; 100 µg/mL): 66.28±2.71%
- Viable cells of PBMCs (% viable cells) ([1]; 200 µg/mL): 71.94±8.32%
- Viable cells of PBMCs (% viable cells) ([1]; 400 µg/mL): 48.78±0.59%
- Hemolytic activities (%hemolysis) ([2]; 6.25 µg/mL): -0.53±0.75%
- Hemolytic activities (%hemolysis) ([2]; 12.5 µg/mL): 3.52±4.98%
- Hemolytic activities (%hemolysis) ([2]; 25 µg/mL): 5.81±3.73%
- Hemolytic activities (%hemolysis) ([2]; 50 µg/mL): 7.04±3.98%
- Hemolytic activities (%hemolysis) ([2]; 100 µg/mL): 8.27±3.73%
- Hemolytic activities (%hemolysis) ([2]; 200 µg/mL): 9.68±2.74%
- Hemolytic activities (%hemolysis) ([2]; 400 µg/mL): 10.56±1.99%
- hemolysis at the MICs level ([2]; at the MICs level, single figure of the abstract): 1.50%
- MIC values (Mab ATCC19977 strain): 200 µg/mL (≈ 117 µM)

Structure (SMILES): CC[C@H]1OC(=O)[C@H](C)[C@@H](O[C@H]2C[C@@](C)(OC)[C@@H](O)[C@H](C)O2)[C@H](C)[C@@H](O[C@@H]2O[C@H](C)C[C@H](N(C)C)[C@H]2O)[C@](C)(OC)C[C@@H](C)C(=O)[C@H](C)[C@@H](O)[C@]1(C)O [CLA, Clarithromycin]
- MIC [3, 8]: 8 µg/mL (≈ 10.7 µM)
- MIC [3, 9]: 32 µg/mL (≈ 42.8 µM)
- MIC [3, 10]: 32 µg/mL (≈ 42.8 µM)
- DST profile, interpretation, Day 3 ([3]; day 3, CLSI interpretation): R
- DST profile, interpretation, Day 5 ([3]; day 5, CLSI interpretation): R
- DST profile, interpretation, Day 14 ([3]; day 14, CLSI interpretation): R
- MIC [4, 8]: 512 µg/mL (≈ 685 µM)
- MIC [4, 9]: 512 µg/mL (≈ 685 µM)
- MIC [4, 10]: 512 µg/mL (≈ 685 µM)
- DST profile, interpretation, Day 3 ([4]; day 3, CLSI interpretation): R
- DST profile, interpretation, Day 5 ([4]; day 5, CLSI interpretation): R
- DST profile, interpretation, Day 14 ([4]; day 14, CLSI interpretation): R
- MIC [5, 8]: 4 µg/mL (≈ 5.35 µM)
- MIC [5, 9]: 4 µg/mL (≈ 5.35 µM)
- MIC [5, 10]: 4 µg/mL (≈ 5.35 µM)
- DST profile, interpretation, Day 3 ([5]; day 3, CLSI interpretation): I
- DST profile, interpretation, Day 5 ([5]; day 5, CLSI interpretation): I
- DST profile, interpretation, Day 14 ([5]; day 14, CLSI interpretation): I
- MIC [6, 8]: 0.2 µg/mL (≈ 0.267 µM)
- MIC [6, 9]: 2 µg/mL (≈ 2.67 µM)
- MIC [6, 10]: 2 µg/mL (≈ 2.67 µM)
- DST profile, interpretation, Day 3 ([6]; day 3, CLSI interpretation): S
- DST profile, interpretation, Day 5 ([6]; day 5, CLSI interpretation): S
- DST profile, interpretation, Day 14 ([6]; day 14, CLSI interpretation): S
- MIC [7, 8]: 1020 µg/mL (≈ 1370 µM)
- MIC [7, 9]: 1020 µg/mL (≈ 1370 µM)
- MIC [7, 10]: 1020 µg/mL (≈ 1370 µM)
- DST profile, interpretation, Day 3 ([7]; day 3, CLSI interpretation): R
- DST profile, interpretation, Day 5 ([7]; day 5, CLSI interpretation): R
- DST profile, interpretation, Day 14 ([7]; day 14, CLSI interpretation): R
